Test [1] relates to MCF7. Description: Inhibition of cell proliferation in human MCF7 cells assessed as increase in intracellular NO production at 25 uM measured after 2.5 hrs by nitric oxide assay. Format: functional, cell-based.
The subject of the next test is MDA-MB-231. Description: Antiproliferative activity against human MDA-MB-231 cells assessed as inhibition of cell growth measured after 48 hrs by MTT assay. It counts as functional, cell-based. As to conditions: MDA-MB-231, 48 h.
The test system of test [2] is MCF7. Description: Antiproliferative activity against human MCF7 cells assessed as inhibition of cell growth measured after 48 hrs by MTT assay. To be noted: MCF7, 48 h. Format: functional, cell-based.
Another test concerns MCF-10A. Description: Cytotoxicity against human MCF-10A cells assessed as reduction in cell viability measured after 48 hrs by MTT assay. It counts as cell-based.

This note sets out measurements from ChEMBL document CHEMBL4842344, “Design, synthesis and biological activity evaluation of novel scopoletin-NO donor derivatives against MCF-7 human breast cancer in vitro and in vivo” (Eur J Med Chem, 2021).

Calls of active or inactive are those of the source. The calls are words filed in the database; no cut-off is given here.

On to `COc1cc2cc(C(=O)NCCc3ccc(F)cc3)c(=O)oc2cc1OCCCOc1no[n+]([O-])c1S(=O)(=O)c1ccccc1`, for which, in the test with MCF7 [1], the result was Active. For the same compound, the half-inhibitory concentration (IC50) in the test with MDA-MB-231 stood at 1110 nM; with MCF7 [2], 440 nM; in the test on MCF-10A, 7950 nM.

`COc1ccc(CCNC(=O)c2cc3cc(OC)c(OCCCOc4no[n+]([O-])c4S(=O)(=O)c4ccccc4)cc3oc2=O)cc1`: in the test on MCF7 [1], the result was Active. Moreover, the IC50 was determined as 1540 nM in the test on MDA-MB-231, 750 nM in the test on MCF7 [2] and 5370 nM in the test on MCF-10A.

As for `COc1cc2cc(C(=O)NCCc3ccccc3)c(=O)oc2cc1OCCCOc1no[n+]([O-])c1S(=O)(=O)c1ccccc1`, the outcome in the test with MCF7 [1] was Active. Besides, the IC50 is 980 nM in the test on MDA-MB-231, 640 nM with MCF7 [2] and 6330 nM in the test on MCF-10A.

With `COc1ccc(CNC(=O)c2cc3cc(OC)c(OCCCOc4no[n+]([O-])c4S(=O)(=O)c4ccccc4)cc3oc2=O)cc1`, in the test with MCF7 [1], the result was Active. The IC50 with MDA-MB-231 turned out to be 780 nM; in the test on MCF7 [2] it was 560 nM; in the test on MCF-10A, 5950 nM.

Take `COc1cc2cc(C(=O)Nc3ccc(F)cc3)c(=O)oc2cc1OCCCOc1no[n+]([O-])c1S(=O)(=O)c1ccccc1`: the result in the test on MCF7 [1] was Active. The IC50 was 1200 nM in the test with MDA-MB-231, 860 nM in the test on MCF7 [2] and 7210 nM in the test on MCF-10A.

With `COc1cc2cc(C(=O)NCCCc3ccc(F)cc3)c(=O)oc2cc1OCCCOc1no[n+]([O-])c1S(=O)(=O)c1ccccc1`, in the test on MCF7 [1], the outcome was Active. For the same compound, the IC50 is 690 nM in the test on MDA-MB-231, 600 nM in the test on MCF7 [2] and 8920 nM in the test with MCF-10A.

As to `COc1cc2cc(C(=O)Nc3ccccc3)c(=O)oc2cc1OCCCOc1no[n+]([O-])c1S(=O)(=O)c1ccccc1`, in the test with MCF7 [1], the result was Active. The IC50 in the test on MDA-MB-231 came out at 1190 nM; with MCF7 [2], 740 nM; in the test with MCF-10A, 9670 nM.

Turning to `COc1cc2ccc(=O)oc2cc1O` [SCOPOLETIN], the IC50 in the test on MDA-MB-231, in the test on MCF7 [2] and with MCF-10A was above 25000 nM each time.

As for `COc1cc2cc(N)c(=O)oc2cc1OCCCOc1no[n+]([O-])c1S(=O)(=O)c1ccccc1`, the figures for the IC50 in the test on MDA-MB-231, in the test on MCF7 [2] and with MCF-10A were 1390 nM, 2020 nM and 6450 nM, respectively.

On to `COc1cc2cc(C(=O)NCCCc3ccccc3)c(=O)oc2cc1OCCCOc1no[n+]([O-])c1S(=O)(=O)c1ccccc1`, for which the result in the test on MCF7 [1] was Active. The IC50 with MDA-MB-231 stood at 760 nM; in the test with MCF7 [2] it was 870 nM; in the test with MCF-10A it was 5330 nM.

Take `COc1cccc2c1C(=O)c1c(O)c3c(c(O)c1C2=O)C[C@@](O)(C(=O)CO)C[C@@H]3O[C@H]1C[C@H](N)[C@H](O)[C@H](C)O1` [DOXORUBICIN]: the IC50 in the test on MDA-MB-231 was 550 nM; in the test with MCF7 [2], 510 nM; in the test on MCF-10A, 490 nM.

In the case of `COc1cc2cc(C(=O)NCc3ccccc3)c(=O)oc2cc1OCCCOc1no[n+]([O-])c1S(=O)(=O)c1ccccc1`, the result with MCF7 [1] was Active. For the same compound, the figures for the IC50 in the test with MDA-MB-231, in the test on MCF7 [2] and with MCF-10A were 1060 nM, 740 nM and 7030 nM, respectively.

On to `COc1ccc(NC(=O)c2cc3cc(OC)c(OCCCOc4no[n+]([O-])c4S(=O)(=O)c4ccccc4)cc3oc2=O)cc1`, for which, in the test on MCF7 [1], the result was Active. For the same compound, the IC50 stood at 730 nM with MDA-MB-231, 410 nM in the test on MCF7 [2] and 5470 nM with MCF-10A.
